Paper PMC9532951, “Identification and characterization of a novel SNAT2 (SLC38A2) inhibitor reveals synergy with glucose transport inhibition in cancer cells” (Frontiers in Pharmacology, 2022)
Several values for one entry are separate records, joined by “and”; a condition that tells them apart may be missing. Equal values may be shown once.

How the values were obtained:
Format in all cases: cell-based, human
SNAT1/2 = assay: [14C]glutamine uptake in HCC1806 cells
Protocol: Functional characterisation of plasma membrane transporters in human cancer cells was determined at 37°C using an array of radiolabelled amino acid substrates. Modified Hanks HEPES-buffered salts solution (mHBSS; 137 mM NaCl; 5.4 mM KCl; 2.7 mM K2HPO4; 1 mM CaCl2; 0.5 mM MgCl2; 0.44 mM KH2PO4; 0.4 mM MgSO4; 5 mM D-glucose; 5 mM HEPES; pH 7.4) was used to wash and incubate cells where sodium dependent transport was measured, while N-methyl-D-glucamine (NMDG) and potassium salts substituted sodium in NMDG mHBSS to measure sodium independent uptake. For the assay, cells were seeded in 35 mm dishes and, once confluent, were washed thrice with warm mHBSS solution and incubated with mHBSS containing an 100 µM amino acid at a final specific activity of ≥2000 cpm/nmol (U-[^14C]amino acids were from PerkinElmer). After 6 min, cells were washed thrice with ice-cold mHBSS, lysed with 500 µl of 0.1 M HCl, detached with a cell scraper and triturated. A 400 µl aliquot was used for scintillation counting, while the remainder was saved for protein mass quantification by Bradford assay. Transport rates were normalised to the protein content of the culture dish.

HCC1806 wild-type cells = assay: FMP assay in the absence of amino acid substrate (non-specific effects)
Protocol: The FLIPR Membrane Potential Blue Explorer Kit (Molecular Devices) was used to characterise inhibitors and to optimise a high-throughput compound screen. Cells were seeded at approximately 60,000 cells/well on a 96-well plate and allowed to attach and grow overnight in a cell incubator. The next day, the cells were washed once with mHBSS and incubated in a starvation medium (composed of mHBSS with 1% dialysed heat-inactivated FBS, 23 mM NaHCO3, 10 U/ml penicillin and 10 μg/ml streptomycin) for 24 h. Cells were then washed once with mHBSS and incubated with 50 µl of the mHBSS-resuspended FMP assay dye and 50 µl of mHBSS (with or without inhibitors) and incubated at room temperature for 30 min. The plate was then placed in an EnSpire Multimode plate reader (PerkinElmer) and four sequential measurements of fluorescence were recorded as a baseline reference. […] The excitation wavelength was set to 530 nm and the emission was detected at 565 nm. The Δ fluorescent signal reported in the figures was taken 30 s after substrate addition. After the assay was complete, the liquid content of the plate was carefully removed, and the cell monolayer inspected to ensure it remained intact throughout the course of the assay.

HCC1806 cells = assay: Assay of glycolytic activity (extracellular lactate); details: 57E 20 μM
Protocol: Glycolytic activity was measured by detecting extracellular lactate levels over a 48-h time course. HCC1806 and HPAFII cells were seeded on a 24-well plate at approximately 500,000 and 700,000 cells/well, respectively, and incubated in growth medium overnight. The following day, the growth medium was aspirated and each well was washed once with growth medium and 1.3 ml of the treatment solution was added to begin the time-course. In addition to sampling the medium at the start of the experiment, 50 μL was collected from each well at the following time points: 9, 24 and 48 h. Samples were stored at −20°C until further use. Lactate was detected by an enzymatic assay, which consisted of combining in microcentrifuge tubes: 5 μl of sample, 45 μl of water; 25 μl of 40 mM NAD^+; 421 μl of buffer (1M glycine, 600 mM hydrazine sulfate, 5.6 mM EDTA; adjusted to pH 9.5 with sodium hydroxide); and 4 μL of L-lactate dehydrogenase solved at 300U/mL (3.33 mg/ml). The tubes were briefly vortexed and incubated for 15 min before transferring 200 μL of the mixture to a 96-well plate. The calibration curve spanned final concentrations from 5 to 500 μM. Absorbance was measured at 340 nm to detect NADH. Lactate production was normalised to total cellular protein per well as measured by the Bradford assay.

OVCAR3 cells = assay: Growth assay (IncuCyte confluence), OVCAR3
Outline: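 OVCAR3 cells were seeded at about 3000 cells/well in 96-well plates in DMEM/F12 with 10% FBS and 2 mM glutamine for 24 h. They then received 300 μL/well of medium with compounds plus penicillin/streptomycin. Plates sat in an IncuCyte at 37°C and 5% CO2, and confluence was imaged every 6 h or at the endpoint once untreated controls passed 90%. Growth is given as % confluence, and curves were fitted with the Gompertz function in OriginPro.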

In the case of C[N+](C)(C)CC(=O)O [Betaine, betaine], the Glutamine uptake (SNAT1/2; AA+ (growth medium), 100 µM glutamine, replicates 1-3) is reported as 37.8707 nmol / mg protein x 6 min and 45.7014 nmol / mg protein x 6 min and 38.6268 nmol / mg protein x 6 min, the Glutamine uptake (SNAT1/2; AA- (starvation medium 24 h), 100 µM glutamine, replicates 1-3) is reported as 13.5306 nmol / mg protein x 6 min and 16.7838 nmol / mg protein x 6 min and 15.0446 nmol / mg protein x 6 min and the “reduction of glutamine uptake” value (SNAT1/2; amino acid depleted HCC1806 cells (24 h), 100 µM glutamine) is reported as 46%.
For Cc1ccc(S(=O)(=O)N(C)c2ccsc2C(=O)NCc2ccccc2C(F)(F)F)cc1 [Compound 57_E, 3-(N-methyl (4-methylphenyl)sulfonamido)-N-(2-trifluoromethylbenzyl)thiophene-2-carboxamide], the “inhibition of 100 µM glutamine uptake” value (SNAT1/2; 50 µM inhibitor, HCC1806 after 24 h amino acid depletion) was “inhibited a significant fraction of the MeAIB-sensitive component of glutamine uptake”, the “Glutamine uptake (nmol / mg protein x 6 min)” value (SNAT1/2; Figure 3D, replicates 1-3) was 46.6677 nmol / mg protein x 6 min and 48.4796 nmol / mg protein x 6 min and 48.0528 nmol / mg protein x 6 min and the “effect on FMP signal without substrate” value (HCC1806 wild-type cells; 30 µM) was “small hyperpolarisation”. The “FMP fluorescence trace (Figure 4C)” value (HCC1806 wild-type cells; time 0) was 66214 and 65985 and 59075, the “FMP fluorescence trace (Figure 4C)” value (HCC1806 wild-type cells; time 20) was 50115 and 66503 and 60514 and the “FMP fluorescence trace (Figure 4C)” value (HCC1806 wild-type cells; time 40) was 49573 and 67066 and 60917. The “FMP fluorescence trace (Figure 4C)” value (HCC1806 wild-type cells; time 60) was 49249 and 67578 and 60989, the “FMP fluorescence trace (Figure 4C)” value (HCC1806 wild-type cells; time 80) was 48925 and 68056 and 61565 and the “FMP fluorescence trace (Figure 4C)” value (HCC1806 wild-type cells; time 100) was 48207 and 68319 and 61663. The “FMP fluorescence trace (Figure 4C)” value (HCC1806 wild-type cells; time 120) was 47392 and 68434 and 62185, the “FMP fluorescence trace (Figure 4C)” value (HCC1806 wild-type cells; time 140) was 47194 and 68990 and 62194 and the “FMP fluorescence trace (Figure 4C)” value (HCC1806 wild-type cells; time 160) was 46255 and 69305 and 62352. The “FMP fluorescence trace (Figure 4C)” value (HCC1806 wild-type cells; time 180) was 45269 and 69919 and 62492, the “FMP fluorescence trace (Figure 4C)” value (HCC1806 wild-type cells; time 200) was 44480 and 70206 and 63053 and the “FMP fluorescence trace (Figure 4C)” value (HCC1806 wild-type cells; time 220) was 43946 and 70155 and 63572. The “FMP fluorescence trace (Figure 4C)” value (HCC1806 wild-type cells; time 240) was 43376 and 70703 and 63707, the “FMP fluorescence trace (Figure 4C)” value (HCC1806 wild-type cells; time 260) was 42447 and 71161 and 64093 and the “FMP fluorescence trace (Figure 4C)” value (HCC1806 wild-type cells; time 280) was 41764 and 71707 and 64350. The “FMP fluorescence trace (Figure 4C)” value (HCC1806 wild-type cells; time -20) was 65818 and 65842 and 59063, the “FMP fluorescence trace (Figure 4C)” value (HCC1806 wild-type cells; time -40) was 65477 and 66036 and 58494 and the lactate production (HCC1806 cells) was “increased”. The “Growth (Figure 6A)” value (OVCAR3 cells; concentration 1) was 94.3 and 98.2 and 97.5, the “Growth (Figure 6A)” value (OVCAR3 cells; concentration 3) was 91.1 and 97.6 and 98.2 and the “Growth (Figure 6A)” value (OVCAR3 cells; concentration 10) was 93.85 and 97.6 and 98.05. The “Growth (Figure 6A)” value (OVCAR3 cells; concentration 30) was 90.7 and 97.95 and the “Growth (Figure 6A)” value (OVCAR3 cells; concentration 100) was 89.25 and 92.95 and 91.35.
